Results: ChEMBL document CHEMBL1125067, “Synthesis and structural requirements of N-substituted norapomorphines for affinity and activity at dopamine D-1, D-2, and agonist receptor sites in rat brain” (J Med Chem, 1990)

Legend:
D(1A) dopamine receptor = D(1A) dopamine receptor (Rattus norvegicus, UniProt P18901)
Description: Dopamine receptor D1 affinity was tested in vitro against corpus striatum from rat brain membranes

Rattus norvegicus = experiment: Stereotyped behavior was tested in rats at (ip) administration of 3 mg/kg (N=6).scores were compared as the percent of that obtained with apomorphine; format: functional
D(2) dopamine receptor = D(2) dopamine receptor (Rattus norvegicus, UniProt P61169)
Sequence of D(2) dopamine receptor (P61169 whole entry): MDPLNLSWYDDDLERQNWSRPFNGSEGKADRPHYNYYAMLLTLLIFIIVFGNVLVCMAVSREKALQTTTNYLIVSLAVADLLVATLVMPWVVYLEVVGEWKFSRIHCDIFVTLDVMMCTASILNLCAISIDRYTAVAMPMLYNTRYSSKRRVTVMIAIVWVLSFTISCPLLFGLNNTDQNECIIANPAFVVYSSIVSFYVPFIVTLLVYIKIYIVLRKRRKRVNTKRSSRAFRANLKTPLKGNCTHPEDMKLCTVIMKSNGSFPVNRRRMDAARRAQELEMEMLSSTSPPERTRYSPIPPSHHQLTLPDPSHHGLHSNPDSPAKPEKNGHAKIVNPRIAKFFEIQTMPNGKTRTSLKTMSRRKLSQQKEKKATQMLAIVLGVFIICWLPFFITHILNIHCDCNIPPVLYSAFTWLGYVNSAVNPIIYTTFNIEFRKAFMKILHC
Description: Dopamine receptor D2 affinity was tested in vitro against corpus striatum from rat brain membranes

Sequence of D(1A) dopamine receptor (P18901 whole entry): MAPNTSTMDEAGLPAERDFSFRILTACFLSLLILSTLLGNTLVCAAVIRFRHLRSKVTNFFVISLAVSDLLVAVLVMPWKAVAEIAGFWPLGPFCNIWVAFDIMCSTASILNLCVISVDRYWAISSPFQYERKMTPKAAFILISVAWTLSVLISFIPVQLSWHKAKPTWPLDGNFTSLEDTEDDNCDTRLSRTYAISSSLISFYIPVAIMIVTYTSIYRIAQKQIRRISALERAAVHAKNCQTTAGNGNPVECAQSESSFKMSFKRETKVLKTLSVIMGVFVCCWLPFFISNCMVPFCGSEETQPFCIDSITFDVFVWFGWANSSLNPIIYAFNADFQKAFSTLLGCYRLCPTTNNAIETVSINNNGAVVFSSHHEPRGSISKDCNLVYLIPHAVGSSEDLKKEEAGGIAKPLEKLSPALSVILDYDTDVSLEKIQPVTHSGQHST

Row | SMILES | Ki (D(1A) dopamine receptor) [nM] | Stereotypy score (Rattus norvegicus) | Ki (D(2) dopamine receptor) [nM]
1 | Oc1ccc2c(c1O)-c1cccc3c1[C@@H](C2)N(CC(F)(F)C(F)(F)F)CC3 | > 50000 | – | –
2 | Cl.OCCN1CCc2cccc3c2[C@H]1Cc1ccc(O)c(O)c1-3 | > 10000 | 0 | –
3 | CC(C)CN1CCc2cccc3c2[C@H]1Cc1ccc(O)c(O)c1-3.Cl | > 10000 | 3 | 490
4 | CN1CCc2cccc3c2[C@H]1Cc1ccc(O)c(O)c1-3.CN1CCc2cccc3c2[C@H]1Cc1ccc(O)c(O)c1-3.Cl.Cl.O [APOMORPHINE HYDROCHLORIDE] | – | 100 | –
5 | CC(C)N1CCc2cccc3c2[C@H]1Cc1ccc(O)c(O)c1-3.Cl | > 10000 | 0 | –
6 | Cl.Oc1ccc2c(c1O)-c1cccc3c1[C@@H](C2)N(CC1CC1)CC3 | 730 | 106 | 0.43
7 | Br.C=CCN1CCc2cccc3c2[C@H]1Cc1ccc(O)c(O)c1-3 | 615 | 86 | –
8 | CCN1CCc2cccc3c2[C@H]1Cc1ccc(O)c(O)c1-3.Cl | 124 | 97 | –
9 | Cl.Oc1ccc2c(c1O)-c1cccc3c1[C@@H](C2)NCC3 | 390 | 26 | –
10 | CCCN1CCc2cccc3c2[C@H]1Cc1ccc(O)c(O)c1-3.Cl | – | 99 | –
11 | Cl.Oc1ccc2c(c1O)-c1cccc3c1[C@@H](C2)N(CC(F)(F)F)CC3 | > 50000 | 2 | –
